This is an account of results in ChEMBL document CHEMBL3576853, “Discovery of InhA inhibitors with anti-mycobacterial activity through a matched molecular pair approach” (Eur J Med Chem, 2015).

Data set [1] has as its system Escherichia coli. Nature of the data set: Toxicity against Escherichia coli JM109 assessed as bacterial growth inhibition at 50 uM after 8 hrs by microplate reader analysis. It is filed as organism-based. To be noted: in vivo.
In data set [2] the test system is Mycobacterium tuberculosis. As to the kind of experiment: Inhibition of Mycobacterium tuberculosis recombinant InhA assessed as enzyme activity measured as NADH oxidation using 2-trans-decenyl CoA as substrate at 50 uM by TECAN spectrophotometer analysis. More on the design: scale not given: the % may be the effect or the level left.
The subject of data set [3] is Escherichia coli. As to the kind of experiment: Toxicity against Escherichia coli BL21 assessed as bacterial growth inhibition at 50 uM after 8 hrs by microplate reader analysis.
The next data set has as its system MDCK. As to the kind of experiment: Cytotoxicity against dog MDCK cells at 50 uM after 1 day by WST-8 assay. It is filed as cell-based, Canis lupus familiaris. To be noted: 24 h. On the technique in general: Formazan colour is commonly taken as a measure of viable cells.
In data set [4] the test system is Mycolicibacterium smegmatis. Nature of the data set: Anti-mycobacterial activity against Mycobacterium smegmatis assessed as bacterial growth inhibition after 24 hrs by microplate reader analysis. In kind it is functional, organism-based.
A further data set has as its system SH-SY5Y. As to the kind of experiment: Cytotoxicity against human SH-SY5Y cells at 50 uM after 2 days by WST-8 assay. It is filed as cell-based. To be noted: 48 h.

pIC50: −log10 of the molar value.

For the compound `O=C(c1cccc(Oc2ccccc2)c1)N1CCN(C(=O)c2ccco2)CC1`, the Activity result in the data set on Escherichia coli [1] is “Non-toxic”; in data set [2] it was 69.3%; with Escherichia coli [3] it was “Non-toxic”; with MDCK it was “Non-toxic”.
By pIC50 is commonly meant the IC50 on a negative log10 scale, so that one unit is a factor of ten. Turning to `NNC(=O)c1ccncc1` [ISONIAZID], the pIC50 in data set [4] is 5.01.
Regarding `COc1cccc(C(=O)N2CCN(Cc3cccc(Oc4ccccc4)c3)CC2)c1OC`, in data set [4], the pIC50 is 4.55. For the same compound, the Activity result is “Non-toxic” in the data set on Escherichia coli [1], 65.1% in data set [2], “Non-toxic” in the data set with Escherichia coli [3] and “Non-toxic” with MDCK.
On to `Oc1cc(Cl)ccc1Oc1ccc(Cl)cc1Cl`, for which, in data set [2], the Activity worked out at 16.3%.
Turning to `O=C(O)C(=O)O.O=C(c1ccccc1F)N1CCN(Cc2cccc(Oc3ccccc3)c2)CC1`, the pIC50 in data set [4] is 4.76. The Activity entry in the data set with Escherichia coli [1] was “Non-toxic”; in data set [2], 21.9%; with Escherichia coli [3], “Non-toxic”; with MDCK, “Non-toxic”.
On to `O=C(COc1ccccc1)N1CCN(Cc2cccc(Oc3ccccc3)c2)CC1`, for which the pIC50 in data set [4] was 4.67. Further, the Activity result in the data set on Escherichia coli [1] was “Non-toxic”; in data set [2], 69.3%; in the data set on Escherichia coli [3] it was “Non-toxic”; in the data set on MDCK it was “Non-toxic”.
Consider `O=C(Cc1ccccc1)N1CCN(Cc2cccc(Oc3ccccc3)c2)CC1`, for which the Activity entry in the data set with Escherichia coli [1] was “Non-toxic”; in data set [2], 65.6%; in the data set with Escherichia coli [3] it was “Non-toxic”; in the data set on MDCK, “Non-toxic”.
For `O=C(O)C(=O)O.O=C(c1cccnc1)N1CCN(Cc2cccc(Oc3ccccc3)c2)CC1`, the Activity entry is “Non-toxic” in the data set with Escherichia coli [1], 34% in data set [2], “Non-toxic” in the data set with Escherichia coli [3] and “Non-toxic” in the data set on MDCK.
Take `COc1ccc(OCC(=O)N2CCN(Cc3cccc(Oc4ccccc4)c3)CC2)cc1`: the Activity entry in the data set with Escherichia coli [1] is “Non-toxic”; in the data set with SH-SY5Y, “Toxic”; in data set [2] it was 44.7%; in the data set with Escherichia coli [3], “Non-toxic”; with MDCK it was “Non-toxic”.
In the case of `Sc1nnc(-c2ccco2)n1/N=C/c1cccc(Oc2ccccc2)c1`, the Activity entry in the data set with Escherichia coli [1] is “Non-toxic”; in data set [2], 53.5%; in the data set with Escherichia coli [3] it was “Non-toxic”; in the data set on MDCK, “Non-toxic”.
For `COc1ccccc1C(=O)N1CCN(Cc2cccc(Oc3ccccc3)c2)CC1.O=C(O)C(=O)O`, the pIC50 in data set [4] was 4.59. For the same compound, the Activity result in the data set on Escherichia coli [1] is “Non-toxic”; in data set [2], 37.7%; in the data set with Escherichia coli [3], “Non-toxic”; with MDCK, “Non-toxic”.
In the case of `O=C(c1ccccc1)N1CCN(Cc2cccc(Oc3ccccc3)c2)CC1`, the pIC50 in data set [4] is 4.64. Further, the Activity result in the data set on Escherichia coli [1] is “Non-toxic”; in data set [2] it was 21.9%; with Escherichia coli [3], “Non-toxic”; in the data set on MDCK, “Non-toxic”.
Take `O=C(c1ccco1)N1CCN(Cc2cccc(Oc3ccccc3)c2)CC1`: in data set [4], the pIC50 is 4.92. For the same compound, the Activity in data set [2] was 65.1%.
